From ChEMBL document CHEMBL1201862, “PubChem BioAssay data set” (2004)
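In this assay, cells in 96-well plates receive the compound at five concentrations for 48 hours. Endpoints are linearly interpolated between the surrounding concentrations. GI50 = concentration required for 50% inhibition of growth.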 The source made the active and inactive calls. No stated cut-off is given here; in the data, active = GI50 up to about 1.1 µM and inactive = higher.

Columns and labels:
Test in all cases: NCI tumour cell line growth inhibition, 48 h
786-0 = tested on: 786-0
ACHN = tested on: ACHN
CAKI-1 = tested on: CAKI-1
DU-145 = tested on: DU-145
HCT-15 = tested on: HCT-15
KM12 = tested on: KM12
LOX IMVI = tested on: LOX IMVI
M14 = tested on: M14
MDA-MB-435 = tested on: MDA-MB-435
MDA-N = tested on: MDA-N
MOLT-4 = tested on: MOLT-4
OVCAR-5 = tested on: OVCAR-5
PC-3 = tested on: PC-3
RXF 393 = tested on: RXF 393
SF-268 = tested on: SF-268
SF-539 = tested on: SF-539
SK-MEL-2 = tested on: SK-MEL-2
SNB-19 = tested on: SNB-19
Hs-578T = tested on: Hs-578T
UO-31 = tested on: UO-31

Compound	GI50 (786-0)	GI50 (ACHN)	GI50 (CAKI-1)	GI50 (DU-145)	GI50 (HCT-15)	GI50 (KM12)	GI50 (LOX IMVI)	GI50 (M14)	GI50 (MDA-MB-435)	GI50 (MDA-N)	GI50 (MOLT-4)	GI50 (OVCAR-5)	GI50 (PC-3)	GI50 (RXF 393)	GI50 (SF-268)	GI50 (SF-539)	GI50 (SK-MEL-2)	GI50 (SNB-19)	GI50 (Hs-578T)	GI50 (UO-31)
O=[PH]1c2ccccc2Nc2ccccc21	> 100 µM (inactive)	> 100 µM (inactive)	> 100 µM (inactive)	98.6 µM (inactive)	37.1 µM	> 100 µM (inactive)	> 100 µM (inactive)	> 100 µM (inactive)	> 100 µM (inactive)	> 100 µM (inactive)	26.2 µM (inactive)	> 100 µM (inactive)	47.1 µM (inactive)	> 100 µM (inactive)	> 100 µM (inactive)	> 100 µM (inactive)	49.9 µM (inactive)	> 100 µM (inactive)		
CC(C)=Cc1cc(CCC/C(C)=C/Cc2c(O)cc(C)c(C(=O)O)c2O)co1	> 100 µM (inactive)	> 100 µM (inactive)	> 100 µM (inactive)	> 100 µM (inactive)	> 100 µM	> 100 µM (inactive)	86.9 µM (inactive)	> 100 µM (inactive)	> 100 µM (inactive)			> 100 µM (inactive)	> 100 µM (inactive)		> 100 µM (inactive)	> 100 µM (inactive)	> 100 µM (inactive)	> 100 µM (inactive)	26.2 µM (inactive)	> 100 µM (inactive)
CC(=O)NC1C(OCc2ccccc2)OC(CO)C(O)C1OCC(=O)N1CCCC1C(=O)N[C@@H](CCC(=O)NCCCCNc1c2ccccc2nc2cccc([N+](=O)[O-])c12)C(N)=O (stereo partly drawn)	46.1 µM (inactive)	26.6 µM (inactive)	> 100 µM (inactive)	31.8 µM (inactive)	42.8 µM	31.3 µM (inactive)		16 µM (inactive)	18 µM (inactive)	14.8 µM (inactive)	32.5 µM (inactive)	25.8 µM (inactive)	18.7 µM (inactive)		31.6 µM (inactive)	77.4 µM (inactive)	15.4 µM (inactive)	17.7 µM (inactive)	21.1 µM (inactive)	45.2 µM (inactive)
CSc1ccc(/C=C2\N=C(c3ccccc3)N(/N=C/c3cc4cc(C)ccc4nc3Cl)C2=O)cc1	17.9 µM (inactive)	16.3 µM (inactive)	18.1 µM (inactive)	17.8 µM (inactive)	23.3 µM	14.3 µM (inactive)	18.6 µM (inactive)	16.7 µM (inactive)	8.15 µM (inactive)	14.4 µM (inactive)	13.5 µM (inactive)	22.9 µM (inactive)	16.9 µM (inactive)		19.1 µM (inactive)	16.5 µM (inactive)	16.8 µM (inactive)	16.7 µM (inactive)	23.1 µM (inactive)	15 µM (inactive)
Cn1c2ccccc2c2c3c(c4c5ccccc5n(C)c4c21)C(=O)N(Cc1ccccc1)C3=O	> 100 µM (inactive)	> 100 µM (inactive)	> 100 µM (inactive)	> 100 µM (inactive)	> 100 µM	> 100 µM (inactive)	> 100 µM (inactive)	> 100 µM (inactive)	> 100 µM (inactive)	> 100 µM (inactive)	> 100 µM (inactive)	> 100 µM (inactive)	> 100 µM (inactive)			> 100 µM (inactive)	> 100 µM (inactive)	> 100 µM (inactive)	> 100 µM (inactive)	> 100 µM (inactive)
Cc1ccccc1NC(=O)Cc1csc2[n+]1C(=O)/C(=C/c1ccc([N+](=O)[O-])cc1)S2	58.9 µM (inactive)	24.2 µM (inactive)	25.5 µM (inactive)	53.8 µM (inactive)	24.3 µM	23.7 µM (inactive)	38.5 µM (inactive)	32.2 µM (inactive)	30.3 µM (inactive)	37.2 µM (inactive)	25.5 µM (inactive)	37.8 µM (inactive)	26.8 µM (inactive)			29 µM (inactive)	29.4 µM (inactive)	26.4 µM (inactive)		18.4 µM (inactive)
O=C(CC(C(=O)c1ccsc1)c1ccsc1)c1ccsc1 (stereo not drawn)	> 100 µM (inactive)	> 100 µM (inactive)	> 100 µM (inactive)	> 100 µM (inactive)	61.4 µM	42.7 µM (inactive)	79.8 µM (inactive)	50.2 µM (inactive)	44.6 µM (inactive)		35.6 µM (inactive)		44 µM (inactive)		> 100 µM (inactive)	> 100 µM (inactive)	> 100 µM (inactive)	> 100 µM (inactive)	> 100 µM (inactive)	39.4 µM (inactive)
CC(=O)OCC1OC(Sc2nc(-c3ccc(C)cc3)c(C#N)c(=O)n2C2OC(COC(C)=O)C(OC(C)=O)C(OC(C)=O)C2OC(C)=O)C(OC(C)=O)C(OC(C)=O)C1OC(C)=O (stereo not drawn)	> 100 µM (inactive)	> 100 µM (inactive)	> 100 µM (inactive)	> 100 µM (inactive)	> 100 µM		> 100 µM (inactive)				> 100 µM (inactive)	> 100 µM (inactive)	> 100 µM (inactive)	> 100 µM (inactive)	> 100 µM (inactive)	> 100 µM (inactive)	> 100 µM (inactive)	> 100 µM (inactive)	> 100 µM (inactive)	> 100 µM (inactive)
CCCCCN(CCCCC)CC(C)(C)C(O)c1ccc(OC)c2ccccc12 (stereo not drawn)	12.4 µM (inactive)	11.7 µM (inactive)	11.6 µM (inactive)	12.5 µM (inactive)	5.81 µM	8.81 µM (inactive)	1.68 µM (inactive)	1.4 µM (inactive)	10.8 µM (inactive)		3.25 µM (inactive)	11.9 µM (inactive)	10.9 µM (inactive)	7.78 µM (inactive)	13.3 µM (inactive)	3.89 µM (inactive)	18.2 µM (inactive)	10.7 µM (inactive)	16.6 µM (inactive)	2.25 µM (inactive)
C1CCCN(NC2=NCCO2)CC1	> 100 µM (inactive)	> 100 µM (inactive)	> 100 µM (inactive)		> 100 µM	> 100 µM (inactive)	> 100 µM (inactive)	> 100 µM (inactive)	> 100 µM (inactive)	> 100 µM (inactive)	> 100 µM (inactive)	> 100 µM (inactive)	> 100 µM (inactive)	> 100 µM (inactive)		> 100 µM (inactive)	> 100 µM (inactive)	> 100 µM (inactive)	> 100 µM (inactive)	> 100 µM (inactive)
O=C(/C=C/c1cccs1)c1ccc([N+](=O)[O-])cc1	> 100 µM (inactive)	> 100 µM (inactive)	> 100 µM (inactive)	> 100 µM (inactive)	> 100 µM	71.9 µM (inactive)	74.5 µM (inactive)	> 100 µM (inactive)	> 100 µM (inactive)	> 100 µM (inactive)	71 µM (inactive)		> 100 µM (inactive)		> 100 µM (inactive)	> 100 µM (inactive)	> 100 µM (inactive)	94.8 µM (inactive)	65.5 µM (inactive)	26.9 µM (inactive)
CC(C)CCNC(=O)C(CC(C)C)NC(=O)[C@H]1O[C@@H]1C(=O)O (stereo partly drawn)	> 100 µM (inactive)		> 100 µM (inactive)	> 100 µM (inactive)	> 100 µM	> 100 µM (inactive)		> 100 µM (inactive)	> 100 µM (inactive)	> 100 µM (inactive)	> 100 µM (inactive)	> 100 µM (inactive)	> 100 µM (inactive)		> 100 µM (inactive)	> 100 µM (inactive)		> 100 µM (inactive)	> 100 µM (inactive)	> 100 µM (inactive)
C[C@@H]1O[C@@H](O[C@H]2CC[C@]3(C=O)[C@H]4CC[C@]5(C)[C@@H](c6ccc(=O)oc6)CC[C@]5(O)[C@@H]4CC[C@]3(O)C2)[C@H](O)[C@H](O)[C@H]1O[C@@H]1O[C@H](CO)[C@@H](O)[C@H](O)[C@H]1O [HELLEBRIN]	0.00451 µM (active)	0.00423 µM (active)	0.0121 µM (active)	0.00265 µM (active)	0.0375 µM	0.0521 µM (active)	0.0166 µM (active)	0.021 µM (active)	0.0107 µM (active)	0.0223 µM (active)	0.00302 µM (active)	0.00989 µM (active)	0.00938 µM (active)		0.0375 µM (active)	0.00811 µM (active)	0.0199 µM (active)	0.0451 µM (active)	0.00653 µM (active)	0.0186 µM (active)
Cc1ccc(-c2nc(-c3cnccn3)n(C3OC(CO)C(O)C(O)C3O)n2)cc1 (stereo not drawn)	> 100 µM (inactive)			> 100 µM (inactive)	> 100 µM	> 100 µM (inactive)	> 100 µM (inactive)	> 100 µM (inactive)	> 100 µM (inactive)	> 100 µM (inactive)	> 100 µM (inactive)	> 100 µM (inactive)	> 100 µM (inactive)	> 100 µM (inactive)	> 100 µM (inactive)	> 100 µM (inactive)		> 100 µM (inactive)		> 100 µM (inactive)
N#C/C(=N/Nc1[nH]cnc1C(N)=O)C(=O)Nc1ccccc1	22.8 µM (inactive)	15.2 µM (inactive)		6.3 µM (inactive)	35.5 µM	13.9 µM (inactive)		4.99 µM (inactive)	22.1 µM (inactive)	12.9 µM (inactive)	4.88 µM (inactive)	34.6 µM (inactive)	7.89 µM (inactive)	59.4 µM (inactive)	8.17 µM (inactive)		5.27 µM (inactive)	> 100 µM (inactive)	67.8 µM (inactive)	3.43 µM (inactive)
